In patent publication US20260198495A1, “BINARY INSECTICIDE COMPOSITION AND USE THEREOF” (SHENYANG SINOCHEM AGROCHEMICALS R & D CO., LTD., priority 2022, published 2026):

What was measured:
Format in all cases: in vivo
[1] = system: Sitobion miscanthi (Fabricius); assay: whole plant or invertebrate; settings: Sitobion miscanthi, in Triticum aestivum; single pesticide, 10 mg/L; 48 hours; read-out: Measured mortality rate
Experimental: Test target: Sitobion miscanthi (Fabricius).
(§1) Preparation of the pesticide solution: according to different test requirements, the test samples were accurately weighed respectively with an electronic analytical balance. The technical pesticides were dissolved in acetone, and then diluted with 0.1% Tween 80 water into a series of pesticide solutions with a certain concentration gradient according to the experimental design dosage.
(§2) Experimental method: first, wheat seedlings with uniform and consistent Sitobion miscanthi (Fabricius) were selected, with about 30-40 insects on each pot of wheat. Then, they were evenly sprayed with the pesticide solution in the order from low dosage to high dosage according to the experimental design, with 2.5 mL for each pot and 3 replicates for each treatment. In addition, a blank control CK was set up.
The treated test materials were placed in an observation room, and the temperature, humidity and illumination of the observation room could be adjusted as needed. The number of dead and alive insects was investigated 48 hours later, and the corrected mortality rate was calculated using the Abbott's formula.
The synergism of the mixture was evaluated by the Bliss method. According to the concept of independent joint action he proposed, Bliss believes that the theoretical mortality rate P when insecticides are used in combination can be calculated by the following formula: […]
Pm is the measured mortality rate (%) of the target when the first active ingredient is at a concentration of m; and Pn is the measured mortality rate (%) of the target when the second active ingredient is used at a concentration of n.
If the actual mortality rate of the target after the two active ingredients are mixed at a certain concentration is greater than theoretical mortality rate P, it is determined that the two active ingredients have a synergistic effect when used in combination at the set concentration, and otherwise, they have an antagonistic effect.

adult Phyllotreta spp. = assay: Joint toxicity of I-72 + organophosphorus insecticides, cabbage seedling spraying, Example 19, Table 19; settings: adults, cabbage seedling spraying, 72 h; A = compound I-72, B = acephate; read-out: LC50
Experimental: Test target: adult Phyllotreta spp., a sensitive strain reared indoors.
as §1
Experimental method: first, fresh cabbage seedlings cultivated in the greenhouse were selected and evenly sprayed with the pesticide solution in the order from low dosage to high dosage according to the experimental design. After natural air-drying in the shade, they were covered with a glass cover, and uniform and healthy test insects were introduced, with 10 insects for each treatment and 3 replicates for each treatment. In addition, a blank control was set up.
The treated test materials were placed in an observation room, and the temperature, humidity and illumination of the observation room could be adjusted as needed. The number of dead and live insects was investigated 72 hours later. The corrected mortality rate was calculated using the Abbott's formula, and statistical analysis was performed with the DPS data processing software to obtain the toxicity regression equation, LC50 value and 95% confidence limit of each single test pesticide and each mixture of different ratios. Then, the co-toxicity coefficient of each ratio was calculated using the Sun Y-P method to evaluate the mixing effect (the same as in Example 1).

[2] = system: 3rd-instar larvae of Spodoptera frugiperda; assay: Joint toxicity of I-72 + indoxacarb, corn leaf dipping, Example 3, Table 3; settings: Spodoptera frugiperda, foliar, 72 h, A = compound I-72, B = indoxacarb, read-out: LC50
Source text: Test subject: 3rd-instar larvae of Spodoptera frugiperda, a sensitive strain reared indoors.
Experimental method: the dipping method was adopted. The corn leaves cultivated in the greenhouse were taken, cut into leaf segments of 5 cm long, dipped in the prepared pesticide solution for 10 s, and then cut into small pieces of 1.5 cm×1.5 cm after natural air-drying in the shade. These pieces were placed in a 24-well culture plate, and the standard test insects were introduced, with 48 insects for each treatment. The treated test insects were placed in an observation room under certain conditions. The reaction of the test insects was regularly observed, and the number of dead and live insects was investigated 72 h later.
The test conditions, the preparation method of the pesticide solution, and the evaluation method (Sun Y-P) for the joint action type of the mixture were the same as those in Example 1.

[3] = system: Frankliniella occidentalis Pergande; assay: Joint toxicity of I-72 + organophosphorus insecticides, leaf dipping, Example 14, Table 14; settings: foliar, kidney bean leaf dipping, 48 h, A = compound I-72, B = triazophos, read-out: LC50
Source text: Test target: Frankliniella occidentalis Pergande, a sensitive strain reared indoors.
Experimental method: first, kidney bean leaves were selected and dipped in the prepared pesticide solution for 10 s in the order from low dosage to high dosage according to the experimental design. After natural air-drying in the shade, they were placed in a 9-cm-diameter Petri dish with filter paper, and uniform and healthy test insects were introduced, with about 20 insects for each treatment and 3 replicates for each treatment. In addition, a blank control was set up.

[4] = system: Aphis gossypii Glover nymphs; assay: Joint toxicity of I-72 + flonicamid, Example 74, Table 74; settings: Aphis gossypii; A = compound I-72, B = flonicamid; cotton leaf spraying; 48 hours; read-out: LC50
Experimental: Test target: Aphis gossypii Glover nymphs, a sensitive strain reared indoors.
as §1
as §2, with “cotton leaves” for “wheat seedlings”, “Aphis gossypii” for “Sitobion miscanthi (Fabricius)”, “leaf.” for “pot of wheat.”, “1.5” for “2.5”, “leaf” for “pot”, “control” for “control CK”
(§3) The treated test materials were placed in an observation room, and the temperature, humidity and illumination of the observation room could be adjusted as needed. The number of dead and live insects was investigated 48 hours later. […] Then, the co-toxicity coefficient of each ratio was calculated using the Sun Y-P method to evaluate the mixing effect (the same as in Example 1).

[5] = system: adult Tetranychus urticae Koch; assay: Joint toxicity of I-72 + spirobudifen, Example 29, Table 29; settings: A = compound I-72, B printed spirotetramat (title: spirobudifen), potted-seedling spraying, 72 hours, read-out: LC50
Experimental: as §1
In addition, a blank control was set up.
The treated test materials were placed in an observation room, and the temperature, humidity and illumination of the observation room could be adjusted as needed.

[6] = system: Aphis citricola van der Goot nymphs; assay: Joint toxicity of I-72 + nicotine, Example 72, Table 72; settings: A = compound I-72, B = nicotine, apple leaf spraying, 48 hours
Experimental: Test target: Aphis citricola van der Goot nymphs.
as §1
as §2, with “apple leaves” for “wheat seedlings”, “Aphis citricola van der Goot” for “Sitobion miscanthi (Fabricius)”, “leaf.” for “pot of wheat.”, “1.5” for “2.5”, “leaf” for “pot”, “control” for “control CK”
as §3

Rhizoctonia solani = assay: Control efficacy against Rhizoctonia solani, rice seedling potting method, Example 89, Table 89; settings: rice seedlings, foliar spraying
Experimental: Control efficacy of the composition containing the compound I-72 against Rhizoctonia solani
Test target: Rhizoctonia solani, a sensitive strain cultured indoors.
The trial adopted the seedling potting method. Test crop: rice. Experimental method: the rice seedlings were cultured to the 2-leaf stage in the greenhouse of the experimental materials. Foliar spraying treatment was performed on the crop sprayer according to the designed dosage. The test target strain was inoculated 24 hours after the pesticide treatment. All the inoculated experimental materials were cultured in a phytotron. […] The disease grading and the calculation method of the control efficacy both referred to the agricultural industry standards of the People's Republic of China.

`CN(C(=O)c1ccc2c(c1)OC(F)(F)O2)c1cccc(C(=O)Nc2c(Br)cc(C(F)(C(F)(F)F)C(F)(F)F)cc2OC(F)F)c1F` [Compound I-72] gave a mortality at 10 µg/mL [1] of 64.2%, an LC50 (adult Phyllotreta spp.) of 3.01 µg/mL and an LC50 [2] of 0.0737 µg/mL. For the same compound, the LC50 [3] was 3.13 µg/mL, the LC50 [4] was 2.81 µg/mL and the LC50 [5] was 41.6 µg/mL. The LC50 [6] was 3.06 µg/mL, the Control efficacy (Rhizoctonia solani; 5 mg/L, A = compound I-72, B = coumoxystrobin) was 0% and the Control efficacy (Rhizoctonia solani; 5 mg/L, A = compound I-72, B = pyraoxystrobin) was 0%. For the same compound, the Control efficacy (Rhizoctonia solani; 10 mg/L, A = compound I-72, B = coumoxystrobin) was 0%, the Control efficacy (Rhizoctonia solani; 10 mg/L, A = compound I-72, B = pyraoxystrobin) was 0% and the Control efficacy (Rhizoctonia solani; 20 mg/L, A = compound I-72, B = coumoxystrobin) was 0%. It also gave a Control efficacy (Rhizoctonia solani; 20 mg/L, A = compound I-72, B = pyraoxystrobin) of 0%.
